Earlier results on two compounds are cited in US20110287061A1 (priority 2010, published 2011).

For data set [1], the system named is gray hair. Particulars: 50 patients with gray hair, daily administration for two months.
The test system of data set [2] is gray hair. The following applies: of 20 patients taking varying amounts daily for other conditions.
The subject of data set [3] is hair loss. Particulars: administered together with Saw Palmetto; individuals with mild to moderate hair loss.

Regarding `Nc1ccc(C(=O)O)cc1` [PABA, 4-aminobenzoic acid], the hair colour change entry in data set [1] is “marked darkening of the hair”. Besides, in data set [2], the “cases of dramatic hair color change and hair re-growth” value is reported as 5 cases.
Turning to `CC[C@H](CC[C@@H](C)[C@H]1CC[C@H]2[C@@H]3CC=C4C[C@@H](O)CC[C@]4(C)[C@H]3CC[C@]12C)C(C)C` [beta-sitosterol], the hair growth entry in data set [3] is on record as “healthy hair growth”.
